Measured values reported in patent US20080299118A1, “FXR Agonists for the Treatment of Malignancies” (Wyeth, priority 2007, published 2008).

Tests used:
RECK gene [1] = test: RECK expression in liver of male LDLR deficient mice, real-time PCR of liver RNA; assay type: in vivo, mouse; conditions: Western diet, 30 mg/kg by gavage once a day for 7 days, liver RNA 4 h after final treatment, p<0.01
Method: Male LDLR deficient mice, fed a Western diet, were administered vehicle or 30 mg/kg Compound A [isopropyl 3-(3,4-difluorobenzoyl)-1,1-dimethyl-1,2,3,6-tetrahydroazepino[4,5-b]indole-5-carboxylate] by gavage once a day for 7 days. Four hours after the final treatment, mice were euthanized and real-time PCR analysis of liver RNA was performed.
RECK expression levels were normalized to GAPDH and the mean level of RECK expression in vehicle treated mice was defined as 1.0. Data are presented as the mean ± standard error of the mean (SEM). 6 mice were tested in each group.

RECK gene [2] = test: RECK expression in liver of wildtype, FXR deficient and SHP deficient mice, real-time PCR of liver RNA; assay type: in vivo, mouse; conditions: 30 mg/kg by gavage once a day for 7 days
Method: Wildtype or FXR deficient mice on the C57B1/6 background and wildtype or SHP deficient mice on the 129 background were fed a standard chow diet. Mice were administered vehicle or 30 mg/kg Compound A by gavage once a day for 7 days. Four hours after the final treatment, mice were euthanized and real-time PCR analysis of liver RNA was performed.
RECK expression levels were normalized to GAPDH and the mean level of RECK expression in vehicle treated female C57B1/6 mice was defined as 1.0. Data are presented as the mean ±SEM. 6 mice were tested in each group. […] (p<0.01). […] (p<0.01).

RECK gene [3] = test: Kinetics of induction of RECK expression in liver after a single dose, wildtype and FXR deficient mice; assay type: in vivo, mouse; conditions: wildtype mice, single dose 30 mg/kg by oral gavage
Method: Wildtype or FXR deficient male and female mice were administered a single dose of vehicle or 30 mg/kg Compound A by oral gavage. Mice were euthanized at various times after treatment and real-time PCR analysis of liver RNA was performed.
RECK expression levels were normalized to GAPDH, and the mean level of RECK expression at t=0 was defined as 1.0. […] The kinetics of induction of RECK expression by Compound A are consistent with direct induction of RECK expression by FXR activation.

RECK gene [4] = test: RECK expression in human hepatocytes, real-time PCR; assay type: cell-based; conditions: 1 μM, 24 hours of treatment, p<0.05
Method: Confluent monolayers of human hepatocytes in 24-well plates, cultured in InVitroGRO HI medium, were treated with DMSO vehicle or Compound A. After 24 hours of treatment, the cells were harvested and RNA was prepared for real time PCR analysis.
RECK expression was normalized to GAPDH, and the mean level of RECK expression in DMSO treated cells was defined as 1.0. The data are presented as the mean ± SEM from triplicate determinations.

RECK gene [5] = test: RECK expression in mouse primary hepatocytes, real-time PCR; assay type: cell-based; conditions: 1 μM; for RECK expression, fold induction relative to t=0: normalized to GAPDH, p<0.01
Method: Mouse primary hepatocytes were plated at 1.5×10^5 cells per well in 24-well plates and cultured in Williams E medium supplemented with 15 mM HEPES pH 7.4, 1% insulin-transferrin-selenium supplement, 1 nM dexamethasone, 50 U/ml penicillin, and 50 μg/ml streptomycin. Cells were treated with DMSO vehicle or with the FXR agonists, Compound A or Compound B ((E)-3-(2-chloro-4-((3-(2,6-dichlorophenyl)-5-isopropylisoxazol-4-yl)methoxy)styryl)benzoic acid). Cells were harvested at various times after treatment and RNA was prepared for real-time PCR analysis.
RECK expression levels were normalized to GAPDH and the mean level of RECK expression at t=0 was defined as 1.0.

RECK expression, fold induction relative to t=0 (RECK gene [3]; liver RNA) | RECK expression, fold induction relative to t=0 (RECK gene [5]) | SMILES | RECK expression (normalized to GAPDH, vehicle = 1.0) (RECK gene [1]) | RECK expression (normalized to GAPDH) (RECK gene [2]; FXR deficient mice (C57B1/6 background)) | RECK expression (normalized to GAPDH) (RECK gene [2]; SHP deficient mice (129 background), p=0.02 in males, p<0.01 in females) | RECK expression (normalized to GAPDH) (RECK gene [2]; male and female wildtype C57B1/6 mice, p<0.01) | Induction of RECK expression, female compared to male (RECK gene [2]; wildtype 129 mice, p<0.01) | Induction of RECK expression, female compared to male (RECK gene [2]; wildtype C57B1/6 mice) | Time after administration at which induction of RECK expression was observed (RECK gene [3]; expression continued to increase at later time points, p<0.01) [h] | RECK expression (normalized to GAPDH, DMSO = 1.0) (RECK gene [4]) | Time of peak RECK expression following treatment (RECK gene [5]) [h]
induced RECK expression | induced RECK expression | CC(C)OC(=O)C1=CN(C(=O)c2ccc(F)c(F)c2)CC(C)(C)c2c1[nH]c1ccccc21 [Compound A, isopropyl 3-(3,4-difluorobenzoyl)-1,1-dimethyl-1,2,3,6-tetrahydroazepino[4,5-b]indole-5-carboxylate] | RECK expression is induced | failed to induce RECK expression | induction of RECK expression was observed | induced expression of the RECK gene | enhanced compared to male 129 mice | Enhanced induction of RECK expression was observed in female compared to male | ≤ 2 | induced expression of the RECK gene | 4
 | induced RECK expression | CC(C)c1onc(-c2c(Cl)cccc2Cl)c1COc1ccc(/C=C/c2cccc(C(=O)O)c2)c(Cl)c1 [Compound B, (E)-3-(2-chloro-4-((3-(2,6-dichlorophenyl)-5-isopropylisoxazol-4-yl)methoxy)styryl)benzoic acid, reference compound] |  |  |  |  |  |  |  |  | 4
